Laboratory results taken from ChEMBL document CHEMBL1128004, “Ketones related to the benzoate 5-HT4 receptor antagonist RS-23597 are high affinity partial agonists” (Bioorg Med Chem Lett, 1994).

Columns and labels:
[1] = biological target: 5-hydroxytryptamine receptor 4 (Homo sapiens) (UniProt Q13639); experiment: Intrinsic activity relative to the 5-HT was determined; type: functional; conditions: Rattus norvegicus
[2] = biological target: 5-hydroxytryptamine receptor 4 (Homo sapiens) (UniProt Q13639); experiment: Compound was tested for antagonist activity against 5-HT4 receptor in rat esophageal muscularis mucosae; type: functional, tissue-based; conditions: Muscularis mucosa, target entry is the homologue from another species
[3] = biological target: 5-hydroxytryptamine receptor 4 (Homo sapiens) (UniProt Q13639); experiment: Compound was tested for 5-HT4 receptor in rat esophageal muscularis mucosae; Antagonist; type: functional; conditions: filed as antagonist, target entry is the homologue from another species

5-hydroxytryptamine receptor 4 (Homo sapiens), sequence (Q13639 whole entry): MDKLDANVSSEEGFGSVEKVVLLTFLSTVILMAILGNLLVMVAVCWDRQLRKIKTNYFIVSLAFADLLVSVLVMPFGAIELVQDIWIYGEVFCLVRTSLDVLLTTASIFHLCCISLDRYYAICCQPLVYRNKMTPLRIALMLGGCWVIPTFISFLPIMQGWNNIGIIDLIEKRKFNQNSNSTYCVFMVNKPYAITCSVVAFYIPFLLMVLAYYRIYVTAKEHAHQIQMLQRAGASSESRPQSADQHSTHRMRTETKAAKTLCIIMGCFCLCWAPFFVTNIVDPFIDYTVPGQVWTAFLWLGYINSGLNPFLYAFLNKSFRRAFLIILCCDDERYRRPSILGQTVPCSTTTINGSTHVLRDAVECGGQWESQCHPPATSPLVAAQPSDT

SMILES	Intrinsic activity [1]	other results
COc1cc(N)c(Cl)cc1C(=O)CCC1CCN(CCNS(C)(=O)=O)CC1	0.5	
CCN(CC)CCOC(=O)c1cc(Cl)c(N)cc1OC		pKb [2]: 7.3
COc1cc(N)c(Cl)cc1C(=O)CCC1CCN(CCCNS(C)(=O)=O)CC1		Activity [3]: Antagonist
COc1cc(N)c(Cl)cc1C(=O)OCCCN1CCCCC1		pKb [2]: 7.9
COc1cc(N)c(Cl)cc1C(=O)NCCN1CCCCC1	0.6	

Further lines, with some results ahead:

Intrinsic activity [1]	SMILES	other results
0.5	CCN(CC)CCNC(=O)c1cc(Cl)c(N)cc1OC	
0.6	COc1cc(N)c(Cl)cc1C(=O)NC[C@@H]1CCN2CCC[C@@H]12	
0.5	COc1cc(N)c(Cl)cc1C(=O)OCCN1CCCCC1	
